These results are taken from ChEMBL document CHEMBL1146208, “Discovery and optimization of novel, non-steroidal glucocorticoid receptor modulators” (Bioorg Med Chem Lett, 2007).

One data set concerns the target T1, Glucocorticoid receptor (Homo sapiens, UniProt P04150).
T1 sequence (P04150 whole entry): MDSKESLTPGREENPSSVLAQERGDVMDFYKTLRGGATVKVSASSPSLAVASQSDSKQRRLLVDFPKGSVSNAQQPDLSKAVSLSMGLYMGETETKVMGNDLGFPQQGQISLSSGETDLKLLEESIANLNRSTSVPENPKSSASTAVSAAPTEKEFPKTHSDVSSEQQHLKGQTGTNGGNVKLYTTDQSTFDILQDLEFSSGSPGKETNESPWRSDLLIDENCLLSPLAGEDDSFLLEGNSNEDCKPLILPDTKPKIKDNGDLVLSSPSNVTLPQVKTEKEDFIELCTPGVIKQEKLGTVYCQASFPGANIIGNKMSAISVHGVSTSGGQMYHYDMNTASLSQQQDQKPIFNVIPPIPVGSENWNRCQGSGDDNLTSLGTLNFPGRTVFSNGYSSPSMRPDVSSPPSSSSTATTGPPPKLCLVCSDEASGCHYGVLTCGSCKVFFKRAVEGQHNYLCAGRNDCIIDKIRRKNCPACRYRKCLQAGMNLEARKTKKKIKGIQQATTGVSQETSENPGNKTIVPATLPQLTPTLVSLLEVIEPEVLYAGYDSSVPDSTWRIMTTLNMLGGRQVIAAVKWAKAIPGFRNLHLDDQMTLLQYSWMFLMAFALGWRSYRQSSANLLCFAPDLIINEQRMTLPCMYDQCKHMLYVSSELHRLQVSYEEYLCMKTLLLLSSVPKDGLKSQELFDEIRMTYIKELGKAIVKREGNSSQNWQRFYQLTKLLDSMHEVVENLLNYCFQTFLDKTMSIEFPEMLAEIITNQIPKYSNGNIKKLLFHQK
Briefly: Antagonist activity at human GR. Type of data set: functional.
Settings: not given
Broadly, the Ki is the equilibrium dissociation constant of an inhibitor or competing ligand from its target. `O=c1[nH]c(N2CCC(c3ccccc3)CC2)c(Cc2ccccc2Cl)c(=O)[nH]1`: affinity was put at a Ki of 50 nM.

For the molecule `Cn1c(=O)[nH]c(N2CCC(Cc3ccccc3)CC2)c(Cc2ccccc2)c1=O`, the inhibition constant Ki was determined as 100 nM.

The molecule `O=c1[nH]c(N2CCC(c3ccccc3)CC2)c(Cc2ccc(Cl)cc2)c(=O)[nH]1` had a Ki of 260 nM.

As for `O=c1[nH]c(N2CCC(c3ccccc3)CC2)c(Cc2ccccc2)c(=O)[nH]1`, the affinity, expressed as Ki, was 93 nM.

`O=c1[nH]c(N2CCC(c3ccccc3)CC2)c(Cc2cccc(Cl)c2)c(=O)[nH]1` registered an inhibitory constant (Ki) of 96 nM.

`Cn1c(=O)[nH]c(N2CCC(Cc3ccccc3)CC2)c(Cc2ccccc2Br)c1=O`: affinity was put at a Ki of 300 nM.

Turning to `Cn1c(=O)[nH]c(N2CCC(c3ccccc3)CC2)c(Cc2ccccc2)c1=O`, the inhibition constant (Ki) was found to be 190 nM.

For `O=c1[nH]c(N2CCC(c3ccccc3)CC2)c(Cc2cccc(Br)c2)c(=O)[nH]1`, the affinity, expressed as Ki, was 65 nM.

`O=c1[nH]c(N2CCC(Cc3ccccc3)CC2)c(Cc2ccccc2)c(=O)[nH]1` gave an inhibition constant (Ki) of 150 nM.

As to `COc1cccc(C2CCN(c3[nH]c(=O)[nH]c(=O)c3Cc3ccccc3)CC2)c1`, the affinity corresponds to a Ki of 158 nM.

The next data set relates to Plasma. Put plainly: Drug lavel in rat plasma at 1 mg/kg, iv. Type of data set: ADME, organism-based. The arrangement: dose 1 mg/kg, route intravenous. The following applies: in vivo.
`O=c1[nH]c(N2CCC(c3ccccc3)CC2)c(Cc2ccccc2)c(=O)[nH]1` had a Cp of 178 ng/mL.

Test system in another data set: not listed separately
Briefly: Cmax in rat at 5 mg/kg, po. The arrangement: dose 5 mg/kg, route oral. It counts as ADME, organism-based. To be noted: in vivo.
Usually Cmax stands for the peak of the concentration-time curve. The molecule `O=c1[nH]c(N2CCC(c3ccccc3)CC2)c(Cc2ccccc2)c(=O)[nH]1` showed a Cmax of 143 ng/mL.

Test system in the next data set: not listed separately
Briefly: AUC in rat at 5 mg/kg, po. Details: dose 5 mg/kg, route oral. To be noted: plasma. It counts as ADME, organism-based.
The AUC is the area under the concentration-time curve, a measure of exposure. The low end stands for low exposure, the high end for high exposure. The molecule `O=c1[nH]c(N2CCC(c3ccccc3)CC2)c(Cc2ccccc2)c(=O)[nH]1` returned an AUC of 600 ng·h/mL.

A further data set has as its target T2, Glucocorticoid receptor (Homo sapiens) (UniProt P04150).
T2 sequence (whole entry): T1 sequence (P04150 whole entry)
Briefly: Displacement of [3H]dexamethasone from glucocorticoid receptor at 1 uM.
Settings: not given
For orientation: Displacement assays read how much labelled ligand stays bound in the presence of the test substance.
In general, inhibition refers to how much of the control response was suppressed. On to `Cn1c(=O)[nH]c(N2CCc3ccccc3C2)c(Cc2ccccc2)c1=O`, for which the inhibition is 23%.

In the case of `CC1CCN(c2[nH]c(=O)n(C)c(=O)c2Cc2ccccc2)CC1`, the inhibition stood at 2%.

`CC(=O)Nc1cccc(C2CCN(c3[nH]c(=O)[nH]c(=O)c3Cc3ccccc3)CC2)c1` displayed an inhibition of 11%.

`Cn1c(N2CCC(Cc3ccccc3)CC2)c(Cc2ccccc2)c(=O)[nH]c1=O` had an inhibition of 11%.

As to `Cn1c(=O)[nH]c(N2CCC(CCCc3ccccc3)CC2)c(Cc2ccccc2)c1=O`, the inhibition worked out at 18%.

Molecule `COc1cccc(Cc2c(N3CCC(c4ccccc4)CC3)[nH]c(=O)[nH]c2=O)c1` displayed an inhibition of 31%.

`N#Cc1ccc(Cc2c(N3CCC(c4ccccc4)CC3)[nH]c(=O)[nH]c2=O)cc1` yielded an inhibition of 37%.

Test system in a further data set: not listed separately
Put plainly: Metabolic stability in human […] S9 fraction after 30 mins. Type of data set: ADME. The following applies: read-out: Stability.
Regarding `O=c1[nH]c(N2CCC(c3ccccc3)CC2)c(Cc2ccccc2)c(=O)[nH]1`, the remaining at 0.5 h came out at 94%.

A further data set has as its target T1, Glucocorticoid receptor. Briefly: Displacement of [3H]dexamethasone from human recombinant GR.
Settings: not given
With `COc1ccc(C2CCN(c3[nH]c(=O)[nH]c(=O)c3Cc3ccccc3)CC2)cc1`, the Ki is 45 nM.

As to `O=c1[nH]c(N2CCC(c3ccccc3)CC2)c(Cc2ccccc2Cl)c(=O)[nH]1`, the inhibition constant (Ki) worked out at 8.7 nM.

Regarding `Cn1c(=O)[nH]c(N2CCC(Cc3ccccc3)CC2)c(Cc2ccccc2)c1=O`, the inhibition constant (Ki) is 24 nM.

For the molecule `Cn1c(=O)[nH]c(N2CCC(O)(Cc3ccccc3)CC2)c(Cc2ccccc2)c1=O`, the Ki is 360 nM.

For the molecule `Cn1c(=O)[nH]c(N2CCC(Oc3ccccc3)CC2)c(Cc2ccccc2)c1=O`, the inhibition constant (Ki) is 78 nM.

For the molecule `O=c1[nH]c(N2CCC(c3ccccc3)CC2)c(Cc2ccc(Cl)cc2)c(=O)[nH]1`, the inhibition constant Ki was determined as 31 nM.

`O=c1[nH]c(N2CCC(c3ccccc3)CC2)c(Cc2ccccc2)c(=O)[nH]1`: the inhibitory constant (Ki) was 8.1 nM.

As for `N#Cc1cccc(Cc2c(N3CCC(c4ccccc4)CC3)[nH]c(=O)[nH]c2=O)c1`, the inhibitory constant (Ki) is 37 nM.

On to `O=c1[nH]c(N2CCC(c3ccccc3)CC2)c(Cc2cccc(Cl)c2)c(=O)[nH]1`, for which the inhibitory constant (Ki) is 9.1 nM.

`COc1ccccc1C1CCN(c2[nH]c(=O)[nH]c(=O)c2Cc2ccccc2)CC1`: the Ki is 7.1 nM.

As for `CC(=O)Nc1ccc(C2CCN(c3[nH]c(=O)[nH]c(=O)c3Cc3ccccc3)CC2)cc1`, the Ki amounted to 46 nM.

Regarding `Cn1c(=O)[nH]c(N2CCC(Cc3ccccc3)CC2)c(Cc2ccccc2Br)c1=O`, the inhibitory constant (Ki) was found to be 33 nM.

In the case of `Cn1c(=O)[nH]c(N2CCC(O)CC2)c(Cc2cccc(C(F)(F)F)c2)c1=O`, the inhibitory constant (Ki) turned out to be 4500 nM.

With `Cn1c(=O)[nH]c(N2CCC(c3ccccc3)CC2)c(Cc2ccccc2)c1=O`, the inhibition constant (Ki) was 20 nM.

For the molecule `O=c1[nH]c(N2CCC(c3ccccc3)CC2)c(Cc2cccc(Br)c2)c(=O)[nH]1`, the inhibition constant Ki is 14 nM.

As for `O=c1[nH]c(N2CCC(Cc3ccccc3)CC2)c(Cc2ccccc2)c(=O)[nH]1`, the Ki was found to be 19 nM.

As to `COc1cccc(C2CCN(c3[nH]c(=O)[nH]c(=O)c3Cc3ccccc3)CC2)c1`, the Ki was 9.2 nM.

The target of a further data set is CYP3A4 (Homo sapiens, UniProt P08684). Put plainly: Inhibition of CYP3A4 at 1 uM. It counts as ADME.
Sequence of CYP3A4 (P08684 whole entry): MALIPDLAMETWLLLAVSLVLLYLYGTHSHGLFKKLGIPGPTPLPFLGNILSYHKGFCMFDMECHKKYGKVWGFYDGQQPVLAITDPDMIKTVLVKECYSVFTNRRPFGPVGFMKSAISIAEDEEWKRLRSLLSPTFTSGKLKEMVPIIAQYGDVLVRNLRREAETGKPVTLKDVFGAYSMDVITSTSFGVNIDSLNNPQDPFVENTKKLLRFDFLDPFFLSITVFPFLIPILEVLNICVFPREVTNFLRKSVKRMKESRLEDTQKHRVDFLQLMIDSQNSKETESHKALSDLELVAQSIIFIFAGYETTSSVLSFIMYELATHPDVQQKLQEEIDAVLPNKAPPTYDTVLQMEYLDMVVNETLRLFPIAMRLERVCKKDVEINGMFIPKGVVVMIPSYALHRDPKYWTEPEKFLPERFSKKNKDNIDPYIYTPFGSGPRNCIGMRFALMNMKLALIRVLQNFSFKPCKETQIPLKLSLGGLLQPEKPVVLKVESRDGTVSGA
Settings: not given
On to `O=c1[nH]c(N2CCC(c3ccccc3)CC2)c(Cc2ccccc2)c(=O)[nH]1`, for which the inhibition at 1 µM is 25%.

The test system of the next data set is Brain. Briefly: Drug level in rat brain at 1 mg/kg, iv. It counts as ADME, organism-based. Details: dose 1 mg/kg, route intravenous. To be noted: in vivo.
`O=c1[nH]c(N2CCC(c3ccccc3)CC2)c(Cc2ccccc2)c(=O)[nH]1`: the Drug uptake amounted to 45 ng/g.

The next data set deals with T3, Progesterone receptor (Homo sapiens, UniProt P06401).
T3 sequence (P06401 whole entry): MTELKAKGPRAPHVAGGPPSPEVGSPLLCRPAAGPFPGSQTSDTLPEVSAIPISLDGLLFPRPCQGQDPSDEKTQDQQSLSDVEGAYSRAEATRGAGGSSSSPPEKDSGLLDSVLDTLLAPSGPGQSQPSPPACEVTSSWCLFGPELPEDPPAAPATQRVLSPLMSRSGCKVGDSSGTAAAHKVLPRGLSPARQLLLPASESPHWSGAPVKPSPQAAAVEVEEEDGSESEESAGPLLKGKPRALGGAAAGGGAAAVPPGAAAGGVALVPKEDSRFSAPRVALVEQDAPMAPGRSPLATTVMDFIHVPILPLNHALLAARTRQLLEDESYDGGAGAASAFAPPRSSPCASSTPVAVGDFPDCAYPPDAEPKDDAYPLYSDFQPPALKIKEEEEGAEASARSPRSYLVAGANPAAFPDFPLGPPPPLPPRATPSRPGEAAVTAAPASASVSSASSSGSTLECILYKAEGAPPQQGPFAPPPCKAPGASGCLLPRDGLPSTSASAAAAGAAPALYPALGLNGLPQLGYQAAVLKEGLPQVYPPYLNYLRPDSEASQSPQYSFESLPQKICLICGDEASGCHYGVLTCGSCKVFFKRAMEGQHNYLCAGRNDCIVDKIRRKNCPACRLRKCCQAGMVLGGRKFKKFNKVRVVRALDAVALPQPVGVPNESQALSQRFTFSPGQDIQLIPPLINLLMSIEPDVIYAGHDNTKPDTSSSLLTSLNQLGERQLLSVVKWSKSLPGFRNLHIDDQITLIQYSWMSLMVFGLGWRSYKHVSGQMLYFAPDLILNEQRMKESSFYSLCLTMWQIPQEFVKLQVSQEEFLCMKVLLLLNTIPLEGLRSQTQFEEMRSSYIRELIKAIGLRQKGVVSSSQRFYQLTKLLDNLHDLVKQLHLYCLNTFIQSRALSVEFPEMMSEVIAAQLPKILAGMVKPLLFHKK
Put plainly: Displacement of [3H]progesterone from progesterone receptor.
Settings: not given
As for `O=c1[nH]c(N2CCC(c3ccccc3)CC2)c(Cc2cccc(Cl)c2)c(=O)[nH]1`, the Ki was found to be 7050 nM.

Another data set concerns the target T4, Mineralocorticoid receptor (Homo sapiens, UniProt P08235).
T4 sequence (P08235 whole entry): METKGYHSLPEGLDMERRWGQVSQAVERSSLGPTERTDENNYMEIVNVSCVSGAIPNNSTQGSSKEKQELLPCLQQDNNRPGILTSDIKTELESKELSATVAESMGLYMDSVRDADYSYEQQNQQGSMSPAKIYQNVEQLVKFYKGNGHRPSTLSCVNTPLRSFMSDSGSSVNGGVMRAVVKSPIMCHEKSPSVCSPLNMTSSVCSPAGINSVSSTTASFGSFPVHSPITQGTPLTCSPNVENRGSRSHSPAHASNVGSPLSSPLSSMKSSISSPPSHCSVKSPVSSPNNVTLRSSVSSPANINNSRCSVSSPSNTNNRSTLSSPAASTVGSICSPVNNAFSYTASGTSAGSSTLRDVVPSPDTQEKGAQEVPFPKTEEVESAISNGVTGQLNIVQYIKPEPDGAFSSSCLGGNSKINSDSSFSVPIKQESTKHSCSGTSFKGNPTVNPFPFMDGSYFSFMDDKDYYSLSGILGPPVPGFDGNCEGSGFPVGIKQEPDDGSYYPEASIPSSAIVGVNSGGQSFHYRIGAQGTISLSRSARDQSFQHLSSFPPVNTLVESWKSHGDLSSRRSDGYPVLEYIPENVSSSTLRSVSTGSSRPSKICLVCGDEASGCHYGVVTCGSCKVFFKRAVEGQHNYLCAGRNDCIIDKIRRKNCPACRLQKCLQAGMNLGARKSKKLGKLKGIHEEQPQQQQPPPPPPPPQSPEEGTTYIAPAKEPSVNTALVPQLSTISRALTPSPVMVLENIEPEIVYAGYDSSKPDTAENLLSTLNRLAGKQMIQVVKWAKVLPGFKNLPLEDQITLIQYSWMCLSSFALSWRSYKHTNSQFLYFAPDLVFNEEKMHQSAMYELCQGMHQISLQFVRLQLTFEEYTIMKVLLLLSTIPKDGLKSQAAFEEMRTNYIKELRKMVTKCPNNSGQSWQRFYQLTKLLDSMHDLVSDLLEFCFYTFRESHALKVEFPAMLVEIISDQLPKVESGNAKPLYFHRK
Put plainly: biochemical.
Settings: not given
`O=c1[nH]c(N2CCC(c3ccccc3)CC2)c(Cc2ccccc2Cl)c(=O)[nH]1` showed an inhibition constant Ki of 3490 nM.

Take `O=c1[nH]c(N2CCC(c3ccccc3)CC2)c(Cc2ccccc2)c(=O)[nH]1`: the affinity, expressed as Ki, was 930 nM.

Regarding `COc1ccccc1C1CCN(c2[nH]c(=O)[nH]c(=O)c2Cc2ccccc2)CC1`, the Ki stood at 298 nM.

`O=c1[nH]c(N2CCC(c3cccc(Cl)c3)CC2)c(Cc2ccccc2)c(=O)[nH]1` displayed a Ki of 527 nM.

The molecule `COc1cccc(C2CCN(c3[nH]c(=O)[nH]c(=O)c3Cc3ccccc3)CC2)c1` gave an inhibitory constant (Ki) of 1270 nM.
